Here are results for 29 compounds from patent publication US10358446B2, “Bruton's tyrosine kinase inhibitors” (Zibo Biopolar Changsheng Pharmaceutical Co. Ltd., priority 2015, dated 2019).

For the experiment, the target named is BTK (Homo sapiens (Human), UniProt Q06187). Kind of experiment: Btk kinase assay (HTRF). The class given is biochemical. As to conditions: [ATP]=80 μM, BTK=3.4 nM; read-out: BTK Inhibition. As for the experimental part: Btk kinase activity was determined using a homogenous time resolved fluorescence (HTRF) methodology. Measurements were performed in a reaction volume of 15 μL using 384-well assay plates. Kinase enzyme, inhibitor, ATP and 1 μM peptide substrate were incubated in a reaction buffer compose of Hepes 50 mM (pH7.0), NaN3 0.02%, BSA 0.01%, Orthocanadate 0.1 mM. After one hour, the kinase reaction was quenched by the addition of […] antibody and XL-665 in 1× Detection buffer containing 60 mM EDTA (Cisbio), and the mixture was allowed to incubate for one hour. The HTRF signal was measured on a multimode plate reader (EnVision® Multilabel Reader, Perkin Elmer) with an excitation wavelength (λEx) of 330 nm and detection wavelengths (λEm) of 615 and 665 nrm. Activity was determined by the ratio of the fluorescence at 665 nm to that at 615 nm. For each compound, enzyme activity as measured at various concentrations of compound, Negative control reactions were performed in the absence of inhibitor in two replicates and eight no enzyme controls were used to determine baseline fluorescence levels. IC50s were obtained according to the equation: […] For BTK assay, [ATP]=80 μM, BTK=3.4 nM.
Chain of BTK (Q06187 whole entry, species assumed): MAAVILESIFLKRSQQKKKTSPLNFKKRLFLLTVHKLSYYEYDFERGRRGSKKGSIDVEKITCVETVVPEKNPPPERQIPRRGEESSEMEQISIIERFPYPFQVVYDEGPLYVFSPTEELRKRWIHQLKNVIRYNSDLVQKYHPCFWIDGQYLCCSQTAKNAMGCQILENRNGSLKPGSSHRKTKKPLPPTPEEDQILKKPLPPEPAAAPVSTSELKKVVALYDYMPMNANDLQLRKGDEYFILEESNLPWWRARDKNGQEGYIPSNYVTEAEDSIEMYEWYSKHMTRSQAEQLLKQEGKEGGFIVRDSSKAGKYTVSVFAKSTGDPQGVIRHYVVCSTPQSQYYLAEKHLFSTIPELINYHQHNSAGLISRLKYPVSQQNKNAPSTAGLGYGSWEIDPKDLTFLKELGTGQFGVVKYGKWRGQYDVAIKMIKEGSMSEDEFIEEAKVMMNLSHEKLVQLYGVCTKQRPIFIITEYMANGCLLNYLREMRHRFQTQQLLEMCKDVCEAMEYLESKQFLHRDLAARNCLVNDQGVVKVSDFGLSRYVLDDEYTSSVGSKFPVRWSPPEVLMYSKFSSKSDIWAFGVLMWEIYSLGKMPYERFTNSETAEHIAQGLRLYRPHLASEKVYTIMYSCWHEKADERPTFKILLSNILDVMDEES
On the technique in general: In TR-FRET formats the signal depends on donor and acceptor labels being close together.

Turning to `C=CC(=O)Nc1cccc(-n2c(=O)n(-c3ccc(NC(=O)c4ccccc4C(F)(F)F)cc3)c3cnccc32)c1` [Example 262, N-(4-(1-(3-acrylamidophenyl)-2-oxo-1,2-dihydro-3H-imidazo[4,5-c]pyridin-3-yl)phenyl)-2-(trifluoromethyl)benzamide], the IC50 is 100 to 1000 nM.
With `C=CC(=O)N1CC[C@H](n2c(=O)n(-c3ccc(NC(=O)c4ccc(C)c(C(F)(F)F)c4)cc3)c3cnccc32)C1` [Example 269, (S)-N-(4-(1-(1-acryloylpyrrolidin-3-yl)-2-oxo-1H-imidazo[4,5-c]pyridin-3(2H)-yl)phenyl)-4-methyl-3-(trifluoromethyl)benzamide] the figure was 100 to 1000 nM; with `C=CC(=O)N1CC[C@@H](n2c(=O)n(-c3cccc(Oc4cccc(OC5CC5)c4)c3)c3cnccc32)C1` [Example 56, (R)-1-(1-acryloylpyrrolidin-3-yl)-3-(3-(3-cyclopropoxyphenoxy)phenyl)-1H-imidazo[4,5-c]pyridin-2(3H)-one], 10 to 100 nM; with `C=CC(=O)Nc1cccc(-n2c(=O)n(-c3ccc(OCc4ccccc4F)cc3)c3cnccc32)c1` [Example 228, N-(3-(3-(4-((2-fluorobenzyl)oxy)phenyl)-2-oxo-2,3-dihydro-1H-imidazo[4,5-c]pyridin-1-yl)phenyl)acrylamide], 100 to 1000 nM.
With `C=CC(=O)Nc1cccc(-n2c(=O)n(-c3cccc(Oc4cccc(Cl)c4)c3)c3cnccc32)c1` [Example 74, N-(3-(3-(3-(3-chlorophenoxy)phenyl)-2-oxo-2,3-dihydro-1H-imidazo[4,5-c]pyridin-1-yl)phenyl)acrylamide], the IC50 fell in the range of 10 to 100 nM.
The result for `C=CC(=O)N1CCC[C@@H](n2c(=O)n(-c3ccc(Oc4cccc(OC)c4F)cc3)c3cncc(C)c32)C1` [Example 168, (R)-1-(1-acryloylpiperidin-3-yl)-3-(4-(2-fluoro-3-methoxyphenoxy)phenyl)-7-methyl-1H-imidazo[4,5-c]pyridin-2(3H)-one] reads not above 10 nM; that for `C=CC(=O)N1CCC[C@@H](n2c(=O)n(-c3ccc(Oc4cccc(F)c4)cc3)c3cnccc32)C1` [Example 117, (R)-1-(1-acryloylpiperidin-3-yl)-3-(4-(3-fluorophenoxy)phenyl)-1H-imidazo [4,5-c]pyridin-2(3H)-one], 10 to 100 nM; that for `C=CC(=O)Nc1cccc(-n2c(=O)n(-c3ccc(NC(=O)c4ccccc4OC)cc3)c3cnccc32)c1` [Example 258, N-(4-(1-(3-acrylamidophenyl)-2-oxo-1H-imidazo[4,5-c]pyridin-3(2H)-yl)phenyl)-2-methoxybenzamide], 10 to 100 nM.
The result for `C=CC(=O)N1CC[C@@H](n2c(=O)n(-c3ccc(Oc4cccc(Cl)c4C)cc3)c3cnccc32)C1` [Example 139, (R)-1-(1-acryloylpyrrolidin-3-yl)-3-(4-(3-chloro-2-methylphenoxy)phenyl)-1H-imidazo[4,5-c]pyridin-2(3H)-one] reads 10 to 100 nM; that for `C=CC(=O)N1CCC[C@@H](n2c(=O)n(-c3ccc(Oc4cccc(OC)c4F)cc3)c3cncc(OCC)c32)C1` [Example 167, (R)-1-(1-acryloylpiperidin-3-yl)-7-ethoxy-3-(4-(2-fluoro-3-methoxyphenoxy)phenyl)-1H-imidazo [4,5-c]pyridin-2(3H)-one], not above 10 nM; that for `C=CC(=O)Nc1cccc(-n2c(=O)n(-c3ccc(Sc4ccccc4)cc3)c3cnccc32)c1` [Example 157, N-(3-(2-oxo-3-(4-(phenylthio)phenyl)-2,3-dihydro-1H-imidazo[4,5-c]pyridin-1-yl)phenyl)acrylamide], not above 10 nM.
With `C=CC(=O)N1CC[C@@H](n2c(=O)n(-c3cccc(-c4ccccc4)c3)c3cnccc32)C1` [Example 277, (R)-3-([1,1′-biphenyl]-3-yl)-1-(1-acryloylpyrrolidin-3-yl)-1H-imidazo[4,5-c]pyridin-2(3H)-one] the figure was 100 to 1000 nM; with `C=CC(=O)N1CC[C@@H](n2c(=O)n(-c3ccc(Oc4cccc(Cl)c4)cc3)c3cnccc32)C1` [Example 72, (R)-1-(1-acryloylpyrrolidin-3-yl)-3-(4-(3-chlorophenoxy)phenyl)-1H-imidazo[4,5-c]pyridin-2(3H)-one], 10 to 100 nM.
Consider `C=C(C)C(=O)Nc1cccc(-n2c(=O)n(-c3ccc(Oc4ccccc4)cc3)c3cnccc32)c1` [Example 110, N-(3-(2-oxo-3-(4-phenoxyphenyl)-2,3-dihydro-1H-imidazo[4,5-c]pyridin-1-yl)phenyl)methacrylamide], for which the IC50 lay within 100 to 1000 nM.
As for `C=CC(=O)N1CC[C@@H](n2c(=O)n(-c3ccc(NC(=O)c4ccc(OC)c(C(F)(F)F)c4)cc3)c3cnccc32)C1` [Example 268, (R)-N-(4-(1-(1-acryloylpyrrolidin-3-yl)-2-oxo-1H-imidazo[4,5-c]pyridin-3(2H)-yl)phenyl)-4-methoxy-3-(trifluoromethyl)benzamide], the IC50 lay in the range of 100 to 1000 nM.
The result for `C=CC(=O)N1CC[C@@H](n2c(=O)n(-c3ccc(Oc4cccc(C)c4)c(F)c3)c3cnccc32)C1` [Example 78, (R)-1-(1-acryloylpyrrolidin-3-yl)-3-(3-fluoro-4-(m-tolyloxy)phenyl)-1H-imidazo[4,5-c]pyridin-2(3H)-one] reads 10 to 100 nM; that for `C=CC(=O)N1CC[C@@H](n2c(=O)n(-c3cccc(Oc4cccc(F)c4C)c3)c3cnccc32)C1` [Example 55, (R)-1-(1-acryloylpyrrolidin-3-yl)-3-(3-(3-fluoro-2-methylphenoxy)phenyl)-1H-imidazo[4,5-c]pyridin-2(3H)-one], 10 to 100 nM; that for `C=CC(=O)N1CC[C@@H](n2c(=O)n(-c3ccc(Oc4cccc(OC)c4C)cc3)c3cnccc32)C1` [Example 143, (R)-1-(1-acryloylpyrrolidin-3-yl)-3-(4-(3-methoxy-2-methylphenoxy)phenyl)-1H-imidazo[4,5-c]pyridin-2(3H)-one], 10 to 100 nM.
The result for `C=CC(=O)Nc1cccc(-n2c(=O)n(-c3ccc(NC(=O)c4ccccc4)cc3)c3cnccc32)c1` [Example 261, N-(4-(1-(3-acrylamidophenyl)-2-oxo-1H-imidazo[4,5-c]pyridin-3(2H)-yl)phenyl)benzamide] reads 100 to 1000 nM; that for `C=CC(=O)N1CC[C@@H](n2c(=O)n(-c3ccc(OCc4ccccn4)cc3)c3cnccc32)C1` [Example 213, (R)-1-(1-acryloylpyrrolidin-3-yl)-3-(4-(pyridin-2-ylmethoxy)phenyl)-1H-imidazo[4,5-c]pyridin-2(3H)-one], 1000 to 10000 nM; that for `C=CC(=O)N1CC[C@@H](n2c(=O)n(-c3ccc(Oc4ccc(Cl)cc4)cc3)c3cnccc32)C1` [Example 82, (R)-1-(1-acryloylpyrrolidin-3-yl)-3-(4-(4-chlorophenoxy)phenyl)-1H-imidazo[4,5-c]pyridin-2(3H)-one], 100 to 1000 nM.
`C=CC(=O)Nc1cccc(-n2c(=O)n(-c3ccc(Oc4ccccc4)cc3)c3ncccc32)c1` [Example 119, N-(3-(2-oxo-3-(4-phenoxyphenyl)-2,3-dihydro-1H-imidazo[4,5-b]pyridin-1-yl)phenyl)acrylamide]: the IC50 fell in the range of 1000 to 10000 nM.
With `C=CC(=O)N1CC[C@@H](n2c(=O)n(-c3ccc(Oc4ccc(F)cc4)cc3)c3cnccc32)C1` [Example 81, (R)-1-(1-acryloylpyrrolidin-3-yl)-3-(4-(4-fluorophenoxy)phenyl)-1H-imidazo[4,5-c]pyridin-2(3H)-one] the figure was 100 to 1000 nM.
The result for `C=CC(=O)Nc1cccc(-n2c(=O)n(-c3ccc(OCc4ccccc4F)c(F)c3)c3cnccc32)c1` [Example 217, N-(3-(3-(3-fluoro-4-((2-fluorobenzyl)oxy)phenyl)-2-oxo-2,3-dihydro-1H-imidazo[4,5-c]pyridin-1-yl)phenyl)acrylamide] reads 100 to 1000 nM; that for `C=CC(=O)Nc1cccc(-n2c(=O)n(-c3ccc(OCc4cc(F)c(F)cc4F)cc3)c3cnccc32)c1` [Example 195, N-(3-(2-oxo-3-(4-((2,4,5-trifluorobenzyl)oxy)phenyl)-2,3-dihydro-1H-imidazo[4,5-c]pyridin-1-yl)phenyl)acrylamide], 10 to 100 nM; that for `C=CC(=O)N1CC[C@@H](n2c(=O)n(-c3ccc(OCc4ccc(Cl)c(Cl)c4)c(Cl)c3)c3cnccc32)C1` [Example 215, (R)-1-(1-acryloylpyrrolidin-3-yl)-3-(3-chloro-4-((3,4-dichlorobenzyl)oxy)phenyl)-1H-imidazo[4,5-c]pyridin-2(3H)-one], 1000 to 10000 nM.
The result for `C=CC(=O)Nc1cccc(-n2c(=O)n(-c3ccc(Oc4cccc(OC(C)C)c4)c(Cl)c3)c3cnccc32)c1` [Example 145, N-(3-(3-(3-chloro-4-(3-isopropoxyphenoxy)phenyl)-2-oxo-2,3-dihydro-1H-imidazo[4,5-c]pyridin-1-yl)phenyl)acrylamide] reads 100 to 1000 nM.
As to `C=CC(=O)N1CC[C@@H](n2c(=O)n(-c3ccc(Oc4ccc(OC)cc4)cc3)c3cnccc32)C1` [Example 35, (R)-1-(1-acryloylpyrrolidin-3-yl)-3-(4-(4-methoxyphenoxy)phenyl)-1H-imidazo[4,5-c]pyridin-2(3H)-one], the IC50 was in the range of 10 to 100 nM.
With `C=CC(=O)N1CC[C@@H](n2c(=O)n(-c3ccc(OCc4ccccc4)c(Cl)c3)c3cnccc32)C1` [Example 197, (R)-1-(1-acryloylpyrrolidin-3-yl)-3-(4-(benzyloxy)-3-chlorophenyl)-1H-imidazo[4,5-c]pyridin-2(3H)-one] the figure was 100 to 1000 nM.
